How the values were obtained:
male OF 1 mice = assay: analgesia test: abdominal stretches induced by PBQ (phenylbenzoquinone); type: in vivo; details: 30 mg/kg p.o. at 120 minutes, PBQ 2 mg/kg i.p.
Description: The in vivo activity of the compounds of the invention was evaluated in an analgesia test.
Accordingly, intraperitoneal (i.p.) administration of PBQ (phenylbenzoquinone, 2 mg/kg in a 0.9% sodium chloride solution containing 5% of ethanol) to male OF 1 mice weighing 25 to 30 g causes abdominal stretches, on average 30 twists or contractions during the period from 5 to 15 minutes after injection. The test compounds are administered orally (p.o.) or intraperitoneally (i.p.) in suspension in Tween 80 at 0.5%, 60 minutes or 120 minutes before the administration of PBQ.
For example, compounds 28 and 30 of the table reduce by 33% and 80%, respectively, the number of stretches induced by PBQ, at a dose of 30 mg/kg p.o. at 120 minutes.

[1] = molecular target: T1, FAAH (Fatty Acid Amide Hydrolase) (Mus musculus, UniProt O08914); assay: radioenzymatic assay of hydrolysis of anandamide [1-3H ethanolamine] by FAAH; type: biochemical; details: mouse brain membrane homogenates; pre-incubation 20 minutes at 25° C.; anandamide final concentration 10 μM; read-out: IC50 (concentration inhibiting by 50% the control enzymatic activity of FAAH)
T1 construct: Membrane homogenates are prepared at the time of use by homogenizing the tissues; from tissue; host or cells: mouse brain (minus the cerebellum), membrane homogenate
T1 sequence (O08914 1-579): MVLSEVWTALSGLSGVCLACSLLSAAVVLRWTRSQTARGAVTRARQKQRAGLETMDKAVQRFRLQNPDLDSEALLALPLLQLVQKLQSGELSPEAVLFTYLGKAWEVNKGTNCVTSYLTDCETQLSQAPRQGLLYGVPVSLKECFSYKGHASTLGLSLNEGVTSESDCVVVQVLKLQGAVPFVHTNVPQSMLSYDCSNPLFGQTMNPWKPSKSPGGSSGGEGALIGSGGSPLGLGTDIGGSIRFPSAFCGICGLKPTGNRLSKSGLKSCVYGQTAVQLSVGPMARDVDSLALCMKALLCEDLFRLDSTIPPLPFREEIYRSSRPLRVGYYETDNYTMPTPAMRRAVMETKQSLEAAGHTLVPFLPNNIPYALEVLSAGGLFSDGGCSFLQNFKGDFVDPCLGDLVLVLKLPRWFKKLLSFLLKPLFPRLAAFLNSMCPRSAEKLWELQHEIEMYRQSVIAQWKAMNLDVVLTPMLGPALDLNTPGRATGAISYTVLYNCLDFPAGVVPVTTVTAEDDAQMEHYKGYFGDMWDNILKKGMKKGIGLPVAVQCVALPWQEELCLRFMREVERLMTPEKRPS
Description: The compounds of the invention were subjected to pharmacological tests allowing determination of their inhibitory effect on the enzyme FAAH (Fatty Acid Amide Hydrolase).
Accordingly, mouse brains (minus the cerebellum) are removed and stored at −80° C. Membrane homogenates are prepared at the time of use by homogenizing the tissues using a Precellys® apparatus in the reaction buffer (10 mM Tris-HCl pH=8, 150 mM NaCl and 1 mM ethylenediaminetetraacetic acid (EDTA)). The enzymatic reaction is conducted in 96-well Multiscreen filter plates, in a final volume of 70 μl. Reaction buffer supplemented with bovine serum albumin without fatty acids (BSA, 1 mg/ml) is used for the enzymatic reaction, the dilution of the compounds and of anandamide [1-^3H ethanolamine]. Added in succession to the wells are the reaction buffer containing the BSA (43 μl/well), the diluted test compounds at different concentrations (7 μl/well containing 1% DMSO) and the membrane preparation (10 μl/well or […] per assay). After the compounds have been pre-incubated with the enzyme at 25° C. for 20 minutes, the reaction is initiated by the addition of anandamide [1-^3H ethanolamine] […] The mixture is stirred for 10 minutes and then the aqueous phase containing the ethanolamine [1-^3H] is recovered by filtration under vacuum and counted by liquid scintillation.

| melting point [°C] | IC50 [1] [nM] | SMILES | reduction of the number of stretches induced by PBQ (male OF 1 mice) [%] |
| --- | --- | --- | --- |
| 121 to 123 | – | O=C(NCCC1CCN(c2cccc(-c3ccc(F)cc3)n2)CC1)OC(c1nccs1)C(F)(F)F (racemic) [Compound 50, 2,2,2-Trifluoro-1-thiazol-2-ylethyl (+/−)-2-[6′-(4-fluorophenyl)-3,4,5,6-tetrahydro-2H-[1,2′]bipyridinyl-4-yl]ethylcarbamate] | – |
| 114 to 116 | – | O=C(NCCC1CCN(c2ccc3cc(Cl)ccc3n2)CC1)OC(c1nccs1)C(F)(F)F (racemic) [Compound 106, 2,2,2-Trifluoro-1-thiazol-2-ylethyl (+/−)-2-[1-(6-chloroquinolin-2-yl)piperidin-4-yl]ethylcarbamate] | – |
| 131 to 133 | 3 | O=C(NCCC1CCN(c2ccc(-c3ccc(F)cc3)cn2)CC1)OCc1nccs1 [Compound 28, Thiazol-2-ylmethyl 2-[5′-(4-fluorophenyl)-3,4,5,6-tetrahydro-2H-[1,2′]bipyridinyl-4-yl]-ethylcarbamate] | 33 |
| 130 to 132 | 7 | O=C(NCCC1CCN(c2ccc(-c3ccc(F)cc3)cn2)CC1)OCc1cscn1 [Compound 30, Thiazol-4-ylmethyl 2-[5′-(4-fluorophenyl)-3,4,5,6-tetrahydro-2H-[1,2′]bipyridinyl-4-yl]ethylcarbamate] | 80 |
| 100 to 102 | – | O=C(NCCC1CCN(c2ccc(-c3ccc(F)cc3)cn2)CC1)OCc1cncs1 [Compound 33, Thiazol-5-ylmethyl 2-[5′-(4-fluorophenyl)-3,4,5,6-tetrahydro-2H-[1,2′]bipyridinyl-4-yl]ethylcarbamate] | – |
| 157 to 159 | – | CCOc1ccc(-c2ccc(N3CCC(CCNC(=O)OCc4nccs4)CC3)nc2)cc1 [Compound 38, Thiazol-2-ylmethyl 2-[5′-(4-ethoxyphenyl)-3,4,5,6-tetrahydro-2H-[1,2′]bipyridinyl-4-yl]ethylcarbamate] | – |
| 100 to 102 | – | O=C(NCCC1CCN(c2ccc3cc(F)ccc3n2)CC1)OCc1cncs1 [Compound 117, Thiazol-5-ylmethyl 2-[1-(6-fluoroquinolin-2-yl)piperidin-4-yl]ethylcarbamate] | – |

Reference: patent US8912218B2, “Alkylthiazol carbamate derivatives, preparation thereof and therapeutic use thereof” (Sanofi, priority 2008, dated 2014)
